Test results published in patent US20230167073A1 (Teijin Pharma Limited, priority 2020, published 2023).

Each compound was assayed against T1, Human TRPC6 (Homo sapiens, UniProt Q9Y210) (assay: Evaluation of TRPC6 channel inhibitory activity (2), HEK293 cells with stably introduced human TRPC6, OAG stimulation, FLIPR tetra (Compound Nos. 1293 to 1405)). Settings: HEK293 cells with stably introduced human TRPC6, OAG 50 μM/0.5% DMSO, read-out: Inhibitory activity (pIC50 class) (converted).
T1 construct: expressed in transfected cells
T1 sequence (Q9Y210 1-931): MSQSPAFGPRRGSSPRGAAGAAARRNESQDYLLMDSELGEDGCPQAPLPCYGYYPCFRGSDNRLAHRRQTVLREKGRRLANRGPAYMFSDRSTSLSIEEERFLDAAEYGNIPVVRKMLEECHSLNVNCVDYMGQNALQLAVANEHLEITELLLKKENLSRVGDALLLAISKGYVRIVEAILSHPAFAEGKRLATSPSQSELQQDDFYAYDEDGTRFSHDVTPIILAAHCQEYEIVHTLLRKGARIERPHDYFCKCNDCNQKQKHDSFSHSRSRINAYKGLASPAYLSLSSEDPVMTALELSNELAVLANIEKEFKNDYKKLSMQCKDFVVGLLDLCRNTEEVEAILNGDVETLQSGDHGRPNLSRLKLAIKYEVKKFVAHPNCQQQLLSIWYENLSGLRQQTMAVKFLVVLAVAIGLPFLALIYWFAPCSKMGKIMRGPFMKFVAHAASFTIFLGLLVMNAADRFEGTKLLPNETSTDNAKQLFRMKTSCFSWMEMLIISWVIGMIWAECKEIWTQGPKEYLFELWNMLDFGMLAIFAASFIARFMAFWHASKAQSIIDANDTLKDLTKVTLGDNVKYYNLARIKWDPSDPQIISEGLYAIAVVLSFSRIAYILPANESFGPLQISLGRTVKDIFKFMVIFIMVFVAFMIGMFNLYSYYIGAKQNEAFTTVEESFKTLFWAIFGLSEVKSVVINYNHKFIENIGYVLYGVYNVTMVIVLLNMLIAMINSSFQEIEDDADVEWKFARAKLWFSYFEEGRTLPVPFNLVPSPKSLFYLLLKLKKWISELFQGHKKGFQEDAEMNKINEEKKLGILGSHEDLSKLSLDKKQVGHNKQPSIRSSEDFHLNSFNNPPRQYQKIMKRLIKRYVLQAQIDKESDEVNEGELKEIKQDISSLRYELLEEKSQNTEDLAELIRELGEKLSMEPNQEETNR
Format: cell-based
Method: Evaluation of TRPC6 Channel Inhibitory Activity (2) (Compound Nos. 1293 to 1405)
The activity of the TRPC6 inhibitor was measured by stimulating HEK293 cells, in which human TRPC6 was stably introduced, with OAG (1-Oleoyl-2-acetyl-sn-glycerol, Miliipore Sigma, 06754), using the FLIPR tetra system. The cells were proliferated in a humid environment at 37° C. 5% CO2 using a growth medium (DMEM (Dulbecco's Modified Eagle's Medium) high glucose containing 10% fetal bovine serum, 1×PSGlu (penicillin-streptomycin glutamine), 1×NEAA (Non-essential amino acid), sodium pyruvate and 200 μg/mL hyglomycin. For cell subculture, the cells were proliferated to 70-90% confluence, and gently washed twice with PBS (phosphate-buffered saline) free of calcium and magnesium after removing the medium. Then, the cells were incubated at 37° C. for 5 minutes after adding trypsin (3 mL), peeled off by tapping the flask at the base of the hand, 7 mL of growth medium was added to inactivate trypsin, and then the cells were resuspended. Usually, the cells were separated every 2-3 days to become a cell density of ⅕. The day before evaluation, the cells were seeded in a poly-D-lysine (PDL) coated 384-well plate using a multi-channel pipette or multidrop at a cell density of 1.0-1.5×10^4 cells/25 μL/well. After culturing overnight in a PDL-coated 384 Blackwell plate, a fluorescent dye buffer was added first to the cells and the cells were cultured at room temperature for 90-120 minutes. For preparing 10 mL of fluorescent dye buffer, 9 mL of assay buffer, 1 mL of 10×PBX signal enhancer, and 10 μL of calcium indicator were mixed. Cells treated with the compounds of each level 25 minutes before the stimulation with OAG of TRPC6 agonist were incubated. OAG solution was prepared by adding OAG to assay buffer (Ca ringer solution base: 10 mM HEPES (4-(2-hydroxyethyl)-1-piperazine-ethanesulfonic acid), 4 mM MgCl2, 120 mM NaCl, 5 mM KCl, pH=7.2 (25° C.)+0.1% BSA+2 mM CaCl2)) to give an OAG concentration of 0.2 mM/2% DMSO. The final concentration of OAG added to the cells is 50 μM/0.5% DMSO. A volume of 12.5 μL of OAG solution was added, and activation of TRPC6 channel was measured using the FLIPR tetra system assaying the change in intracellular calcium level as an index. The 180 seconds imaging frame was defined as the background signal, and the subtraction of the background signal from the raw data was used as the fluorescence peak signal. Each fluorescence peak signal is standardized using an OAG-induced signal and buffer-induced signal as 100% and 0%, respectively. The inhibition rate obtained by plotting the peak signal after the addition of the compounds of each level was analyzed by a four-parameter logistic regression to quantify the inhibition rate in the logarithm of the inverse of the effective concentration which gives a 50% inhibition rate (pIC50). The intensity was expressed by the above-mentioned symbols (+, ++, +++).

| SMILES | IC50 |
| --- | --- |
| Cc1cc(Oc2cc(C#N)ccc2-c2cccc3cnc(N)nc23)cc(N2CCOCC2)n1 [compound 1303, 4-(2-aminoquinazolin-8-yl)-3-(2-methyl-6-morpholin-4-ylpyridin-4-yl)oxybenzonitrile] | > 1000 nM |
| Cc1cc(Oc2cc(C#N)ccc2-c2ccc(CN)c(C)n2)cc(N2CCOCC2)n1 [compound 1304, 4-[5-(aminomethyl)-6-methylpyridin-2-yl]-3-(2-methyl-6-morpholin-4-ylpyridin-4-yl)oxybenzonitrile] | < 10 nM |
| COc1nc(-c2ccc(C#N)cc2Oc2cc(C)nc(N3CCOCC3)c2)ccc1CN [compound 1305, 4-[5-(aminomethyl)-6-methoxypyridin-2-yl]-3-(2-methyl-6-morpholin-4-ylpyridin-4-yl)oxybenzonitrile] | 10 to 1000 nM |
| CNc1ccc(-c2ccc(C#N)cc2Oc2cc(C)nc(N3CCOCC3)c2)nc1 [compound 1307, 4-[5-(methylamino)pyridin-2-yl]-3-(2-methyl-6-morpholin-4-ylpyridin-4-yl)oxybenzonitrile] | > 1000 nM |
| Cn1cc(-c2cc(Oc3cc(C#N)ccc3-c3ccc(CN)cn3)n(C)n2)cn1 [compound 1309, 4-[5-(aminomethyl)pyridin-2-yl]-3-[2-methyl-5-(1-methylpyrazol-4-yl)pyrazol-3-yl]oxybenzonitrile] | 10 to 1000 nM |
| COc1nc(-c2ccc(C#N)cc2Oc2cc(-c3ccccn3)nn2C)ccc1CN [compound 1310, 4-[5-(aminomethyl)-6-methoxypyridin-2-yl]-3-(2-methyl-5-pyridin-2-ylpyrazol-3-yl)oxybenzonitrile] | 10 to 1000 nM |
| Cc1cc(Oc2cc(Cl)ccc2-c2ncc(CCN)cn2)cc(N2CCOCC2)n1 [compound 1311, 2-[2-[4-chloro-2-(2-methyl-6-morpholin-4-ylpyridin-4-yl)oxyphenyl]pyrimidin-5-yl]ethanamine] | 10 to 1000 nM |
| Cn1nc(-c2ccccn2)cc1Oc1cc(C#N)ccc1-c1ccc(C(F)(F)CN)cn1 [compound 1312, 4-[5-(2-amino-1,1-difluoroethyl)pyridin-2-yl]-3-(2-methyl-5-pyridin-2-ylpyrazol-3-yl)oxybenzonitrile] | < 10 nM |
| Cc1cc(Oc2cc(Cl)ccc2-c2ncc(CN)cn2)cc(N2CCOCC2)n1 [compound 1315, [2-[4-chloro-2-(2-methyl-6-morpholin-4-ylpyridin-4-yl)oxyphenyl]pyrimidin-5-yl]methanamine] | 10 to 1000 nM |
| Cn1nc(-c2ccccn2)cc1Oc1cc(C#N)ccc1-c1cc(Cl)c(CN)cn1 [compound 1316, 4-[5-(aminomethyl)-4-chloropyridin-2-yl]-3-(2-methyl-5-pyridin-2-ylpyrazol-3-yl)oxybenzonitrile] | < 10 nM |
| Cc1cc(Oc2cc(Cl)ccc2-c2ccc(CN)cn2)cc(N2CCOCC2)n1 [compound 1321, [6-[4-chloro-2-(2-methyl-6-morpholin-4-ylpyridin-4-yl)oxyphenyl]pyridin-3-yl]methanamine] | 10 to 1000 nM |
| Cn1nc(-c2ccccn2)cc1Oc1cc(Cl)ccc1-c1ncc(CCN)cn1 [compound 1322, 2-[2-[4-chloro-2-(2-methyl-5-pyridin-2-ylpyrazol-3-yl)oxyphenyl]pyrimidin-5-yl]ethanamine] | < 10 nM |
| Cn1nc(-c2ccccn2)cc1Oc1cc(Cl)ccc1-c1ncc(CN)cn1 [compound 1323, [2-[4-chloro-2-(2-methyl-5-pyridin-2-ylpyrazol-3-yl)oxyphenyl]pyrimidin-5-yl]methanamine] | < 10 nM |
| Cn1nc(-c2ccccn2)cc1Oc1cc(C#N)ccc1-c1ccc(CN)nn1 [compound 1326, 4-[6-(aminomethyl)pyridazin-3-yl]-3-(2-methyl-5-pyridin-2-ylpyrazol-3-yl)oxybenzonitrile] | 10 to 1000 nM |

Other lines, results leading:

| IC50 | SMILES |
| --- | --- |
| < 10 nM | Cn1nc(-c2ccccn2)cc1Oc1cc(C#N)ccc1-c1ccc([C@@H](F)CN)cn1 [compound 1301, 4-[5-[(1R)-2-amino-1-fluoroethyl]pyridin-2-yl]-3-(2-methyl-5-pyridin-2-ylpyrazol-3-yl)oxybenzonitrile] |
| < 10 nM | Cn1nc(-c2ccccn2)cc1Oc1cc(C#N)ccc1-c1ccc([C@H](F)CN)cn1 [compound 1302, 4-[5-[(1S)-2-amino-1-fluoroethyl]pyridin-2-yl]-3-(2-methyl-5-pyridin-2-ylpyrazol-3-yl)oxybenzonitrile] |
| < 10 nM | Cn1nc([C@@H]2CCOC2)cc1Oc1cc(C#N)ccc1-c1ccc(CN)cn1 [compound 1306, 4-[5-(aminomethyl)pyridin-2-yl]-3-[2-methyl-5-[(3S)-oxolan-3-yl]pyrazol-3-yl]oxybenzonitrile] |
| 10 to 1000 nM | Cn1nc([C@@H]2CCOC2)cc1Oc1cc(C#N)ccc1-c1ncc(CN)cn1 [compound 1308, 4-[5-(aminomethyl)pyrimidin-2-yl]-3-[2-methyl-5-[(3S)-oxolan-3-yl]pyrazol-3-yl]oxybenzonitrile] |
| 10 to 1000 nM | Cn1nc(C2CCOCC2)cc1Oc1cc(C#N)ccc1-c1ncc([C@@H](F)CN)cn1 [compound 1313, 4-[5-[(1R)-2-amino-1-fluoroethyl]pyrimidin-2-yl]-3-[2-methyl-5-(oxan-4-yl)pyrazol-3-yl]oxybenzonitrile] |
| 10 to 1000 nM | Cn1nc(C2CCOCC2)cc1Oc1cc(C#N)ccc1-c1ncc([C@H](F)CN)cn1 [compound 1314, 4-[5-[(1S)-2-amino-1-fluoroethyl]pyrimidin-2-yl]-3-[2-methyl-5-(oxan-4-yl)pyrazol-3-yl]oxybenzonitrile] |
| < 10 nM | Cn1nc([C@H]2CCCO2)cc1Oc1cc(C#N)ccc1-c1ccc(CCN)cn1 [compound 1317] |
| 10 to 1000 nM | Cn1nc(-c2ccccn2)cc1Oc1cc(C#N)ccc1-c1ncc(C(F)(F)CN)cn1 [compound 1318, 4-[5-(2-amino-1,1-difluoroethyl)pyrimidin-2-yl]-3-(2-methyl-5-pyridin-2-ylpyrazol-3-yl)oxybenzonitrile] |
| 10 to 1000 nM | Cc1cc(Oc2cc(C#N)ccc2-c2ncc(C(F)(F)CN)cn2)cc(N2CCOCC2)n1 [compound 1319, 4-[5-(2-amino-1,1-difluoroethyl)pyrimidin-2-yl]-3-(2-methyl-6-morpholin-4-ylpyridin-4-yl)oxybenzonitrile] |
| < 10 nM | Cn1nc(-c2ccccn2)cc1Oc1cc(Cl)ccc1-c1ncc([C@H](F)CN)cn1 [compound 1324, (2S)-2-[2-[4-chloro-2-(2-methyl-5-pyridin-2-ylpyrazol-3 yl)oxyphenyl]pyrimidin-5-yl]-2-fluoroethanamine] |
| < 10 nM | Cn1nc(-c2ccccn2)cc1Oc1cc(Cl)ccc1-c1ncc([C@@H](F)CN)cn1 [compound 1325, (2R)-2-[2-[4-chloro-2-(2-methyl-5-pyridin-2-ylpyrazol-3-yl)oxyphenyl]pyrimidin-5-yl]-2-fluoroethanamine] |
